Data on 4 compounds can be found in patent US20250333376A1, “CRYSTAL FORMS OF BMX AND PREPARATION THEREOF” (Novelwise Pharmaceutical Corporation, priority 2024, published 2025).

The structures appear in SMILES notation. ≈ marks a conversion by molar mass, not a printed value. Entries after “also recorded” stand apart in the source; their conditions may differ. Where two headings read alike, the source gives them in different places.

Type in all cases: physicochemical
Data set [1] is described as follows: Hygroscopicity determination by DVS. The procedure: The hygroscopicity of the Crystal Form A of Compound BMX was determined using Surface Measurement Systems Ltd. DVS resolution equipment. The sample was loaded into balance pan, typically 10-30 mg, and equilibrated at 0% relative humidity (RH). When the material has dried, the RH is increased with 10% per step for 1 hour per increment, ending at 95% RH. After completion of the sorption cycle, the sample was dried using the same method. […] The software used for data collection is DVS Control Software for 21 CFR Part 11 v1.0.3.0. Data analysis is performed using DVS Standard Analysis Suite v7.2.0.9 (Standard).

Data set [2] is described as follows: Solubility of Crystal Form A in process solvents and aqueous buffer systems. The conditions noted are these: for solubility at 24 h: thermodynamic from solid. The procedure: The solubility of this form was tested in the process solvents (Ethyl acetate and hexane) and in aqueous buffer systems. 100 mg of Crystal Form A of Compound BMX was weighed into 4 mL vials with 2 mL of the specified solvent/aqueous buffer system being added. These solutions were shaken at room temperature for 24 hours. The pH was monitored in time and remained in the correct range. Samples were filtered and diluted (5× in ACN/MeOH 1/1) and measured using H PLC. The concentration of the samples is determined using a calibration line.

A short description of data set [3]: Competitive slurry experiments to determine the most stable polymorphic form. The conditions noted are these: competitive slurry in 2-propanol, XRPD. The procedure: No material of Crystal Form C, D, or E was available since these could not be reproduced. The competitive slurry was performed using Crystal Forms B, […], F and poorly crystalline material, with 10 mg of each form being added in two 1 mL vials.
The competitive slurry experiment in 2-methyl tetrahydrofuran gave a clear solution and the experiment in 2-propanol gave a white slurry.

Data set [4] in a line: Photo stress stability, amorphous form versus Crystal Form A. The conditions noted are these: for Degradation: 48 hours of exposure to photo-stress conditions (cool white fluorescent lamp and UV fluorescent lamp 320-400 nm). The text has this:
The amorphous Form and the Crystal Form A of Compound BMX samples were exposed at a cool white fluorescent lamp that has an output similar to that specified by ISO 10977 and UV fluorescent lamp with a spectral distribution from 320 nm to 400 nm for evaluating the photo stress stability.

Data set [5] can be described thus: Stability of polymorphic forms stored at 40° C./75% RH for 4 days. The method, then:
Both Crystal Form A and Crystal Form D were found in different solvent combinations using different crystallization techniques. […] Crystal Form C was only observed once, being found in a slurry experiment at 50° C. in DMSO/Ethanol (60/40-%). […] All plates were stored at 40° C./75% RH for 4 days in order to determine the stability of the polymorphic forms.

Data set [6] is described as follows: Solubility of amorphous material of Compound BMX by the shake flask method. The conditions noted are these: for solubility at 24 h / solubility at 15 min: organic solvent or mixture, thermodynamic from solid, shake flask. The method, then: The solubility of amorphous material of Compound BMX was determined by the shake flask method. The amorphous material was obtained by dissolving 500 mg of the Crystal From A of Compound BMX in 10 mL dichloromethane, this solution was evaporated to dryness in vacuum conditions (0 mbar, RT).
The solvents for the solubility determination were selected based on the Principal Component Analysis (PCA) of properties, which means that some pharmaceutically unattractive solvents were included to create a better understanding of the parameter space. The Principal Component Analysis focusses on polarity, polarizability and hydrogen bonding.
Subsequently, the samples were filtered and diluted for LC analysis and the concentration is determined using a calibration line.

The nature of data set [7]: Stability test of Form B slurried in water.
[8] abbreviates: solvent Methyl-tert-butyl ether.

The Solubility is the concentration that dissolves in the medium under given conditions. A lower Solubility goes with little dissolved substance. In general, solubility refers to the dissolved amount per volume that the medium holds. Consider `COc1ccc(COc2c(/C=C/C(=O)NO)ccc(OC)c2CC=C(C)C)cc1` [Crystal Form A], for which the “Mass uptake (DVS)” value in data set [1] (0% to 95% RH, 10% per step, 1 hour per increment) is recorded as 0.035 wt %. Further, the “Hygroscopicity (in words)” value in data set [1] (DVS) is given as “non-hygroscopic; also recorded: not hygroscopic”. Besides, the “Stability under humid conditions (XRPD, DSC/TGA, microscopy pre and post DVS)” value in data set [1] (after DVS up to 95% RH) was “stable under these humid conditions”. The compound also had a Solubility in data set [2] (Ethyl acetate, room temperature, 24 hours) of 20780 µg/mL (≈ 52.3 mM). The solubility at 24 h in data set [2] (FaSSIF, pH 6.5, fassif, pH 6.5, room temperature, 24 hours) was found to be 10 µg/mL (≈ 0.0252 mM); in data set [2] (FeSSIF, pH 5.8, fessif, pH 5.8, room temperature, 24 hours), 180 µg/mL (≈ 0.453 mM); in data set [2] (ethyl acetate, organic solvent or mixture, room temperature, 24 hours) it was 20800 µg/mL (≈ 52.3 mM). Besides, in data set [2] (Hexane, water, FaSSGF, FASSIF and phosphate buffer pH 7.4), the “Solubility (in words)” value is “insoluble”. Besides, in data set [2] (all solvents/buffers of Table 6, 24 hours at room temperature), the “Changes in polymorphic form after solubility test (XRPD)” value is reported as “No changes in polymorphic form were observed”. The results for the “Most stable polymorphic form” value in data set [3] and in data set [3] (listed as Cystal Form A) were “most stable form” and “thermodynamically most stable form”, respectively. In addition, the Degradation in data set [4] stood at 10%. For the same compound, in data set [4] (photo-stress, 48 hours), the “Stability under stress conditions compared with the amorphous form” value is given as “significantly more stable than the amorphous form”.
Turning to `COc1ccc(COc2c(/C=C/C(=O)NO)ccc(OC)c2CC=C(C)C)cc1` [Crystal Form C], the “Stability of the polymorphic form” value in data set [5] is “unstable and converted into Crystal Form D soon”; in data set [5] (listed as Cystal Form C), “not a stable form and converted into polymorphic Crystal Form D”.
Regarding `COc1ccc(COc2c(/C=C/C(=O)NO)ccc(OC)c2CC=C(C)C)cc1` [amorphous material of Compound BMX], in data set [5] (listed as amorphous solid), the “Stability of the polymorphic form” value is on record as “converted into a new polymorphic form: Crystal Form E”. Also, the solubility at 24 h stood at 8800 µg/mL (≈ 22.1 mM) in data set [6] (solvent 2-Ethly-1-butanol), 9700 µg/mL (≈ 24.4 mM) in data set [6] (solvent Anisole), 6900 µg/mL (≈ 17.4 mM) in data set [6] (solvent Ethyl sulfoxide) and 3300 µg/mL (≈ 8.3 mM) in data set [6] (setting [8]). Moreover, the solubility at 15 min fell in the range of 10000 to 33000 µg/mL (≈ 25.2 to 83 mM) in data set [6] (solvent Acetonitrile), 31000 to 94000 µg/mL (≈ 78 to 236 mM) in data set [6] (solvent Dimethyl sulfoxide), 10000 to 33000 µg/mL (≈ 25.2 to 83 mM) in data set [6] (solvent Ethyl butyl ketone) and 31000 to 94000 µg/mL (≈ 78 to 236 mM) in data set [6] (solvent Methanol). Moreover, the USP classification entry in data set [6] (solvent 2-Ethly-1-butanol) is recorded as “Slightly soluble”; in data set [6] (solvent Acetonitrile), “Sparingly soluble”; in data set [6] (solvent Anisole) it was “Slightly soluble”; in data set [6] (solvent Dimethyl sulfoxide), “Soluble”; in data set [6] (solvent Ethyl butyl ketone) it was “Sparingly soluble”; in data set [6] (solvent Ethyl sulfoxide), “Slightly soluble”. In addition, the USP classification result in data set [6] (solvent Methanol) is reported as “Soluble”; in data set [6] (setting [8]) it was “Slightly soluble”; in data set [6] (solvent Water) it was “Practically insoluble”; in data set [6] (solvent n-Heptane) it was “Practically insoluble”. Moreover, the Degradation in data set [4] (listed as amorphous form) came out at 20%.
Regarding `COc1ccc(COc2c(/C=C/C(=O)NO)ccc(OC)c2CC=C(C)C)cc1` [Crystal Form B], in data set [7] (seeds of Crystal Form A, slurrying at 50° C.), the “Conversion on seeding with Crystal Form A” value is reported as “could not be converted into Crystal Form A”. Also, in data set [7] (slurry in water), the “Stability in water (in words)” value is recorded as “very stable in water; also recorded: remained stable in water”. For the same compound, the “Changes in XRPD on slurrying in water” value in data set [7] (water, room temperature, 4 hours, 24 hours, 4 days and 7 days) is listed as “No changes were observed in the XRPD”.
